Earlier results, collected in patent US20070014883A1, “Method for treating osteoarthritis” (priority 2005, published 2007).
“Also recorded” adds a separate entry of the source.

How the values were obtained:
[1] = target: MMP-9 (Homo sapiens, UniProt P14780); conditions: for Inhibitory activity against MMP-9, potency relative to captopril: more potent than captopril; for Inhibition of MMP-9: reference 24
[2] = target: T1, MMP-1 (Homo sapiens, UniProt P03956); conditions: reference 24
T1 sequence (P03956 100-469): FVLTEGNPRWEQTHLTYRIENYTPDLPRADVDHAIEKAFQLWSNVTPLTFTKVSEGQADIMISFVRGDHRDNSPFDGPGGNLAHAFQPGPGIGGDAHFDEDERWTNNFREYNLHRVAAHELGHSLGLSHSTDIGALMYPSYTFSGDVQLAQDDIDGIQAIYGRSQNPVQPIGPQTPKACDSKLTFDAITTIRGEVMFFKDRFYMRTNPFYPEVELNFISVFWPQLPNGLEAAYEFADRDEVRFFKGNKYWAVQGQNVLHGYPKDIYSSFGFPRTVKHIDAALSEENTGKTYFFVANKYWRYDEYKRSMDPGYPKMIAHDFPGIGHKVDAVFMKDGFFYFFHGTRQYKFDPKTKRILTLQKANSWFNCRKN

[3] = target: T2, MMP-2 (Homo sapiens, UniProt P08253); conditions: for Inhibitory activity against MMP-2, potency relative to captopril: more potent than captopril; for Inhibition of MMP-2: reference 24
T2 sequence (P08253 110-660): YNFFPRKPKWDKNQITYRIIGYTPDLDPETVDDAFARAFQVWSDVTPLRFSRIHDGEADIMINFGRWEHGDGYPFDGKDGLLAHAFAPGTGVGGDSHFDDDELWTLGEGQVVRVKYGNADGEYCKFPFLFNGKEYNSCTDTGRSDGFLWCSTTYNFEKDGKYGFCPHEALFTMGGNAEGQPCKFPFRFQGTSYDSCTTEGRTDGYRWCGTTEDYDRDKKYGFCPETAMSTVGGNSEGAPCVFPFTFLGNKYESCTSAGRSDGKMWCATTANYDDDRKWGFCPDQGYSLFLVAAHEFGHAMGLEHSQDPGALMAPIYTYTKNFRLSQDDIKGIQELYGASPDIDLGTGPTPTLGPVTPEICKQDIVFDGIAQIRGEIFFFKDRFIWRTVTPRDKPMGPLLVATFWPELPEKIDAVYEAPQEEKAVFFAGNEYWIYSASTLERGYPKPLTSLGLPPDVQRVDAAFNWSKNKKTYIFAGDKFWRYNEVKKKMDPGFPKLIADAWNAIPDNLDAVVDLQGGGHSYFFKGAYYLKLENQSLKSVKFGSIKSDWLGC

Chain of MMP-9 (P14780 94-707, species assumed): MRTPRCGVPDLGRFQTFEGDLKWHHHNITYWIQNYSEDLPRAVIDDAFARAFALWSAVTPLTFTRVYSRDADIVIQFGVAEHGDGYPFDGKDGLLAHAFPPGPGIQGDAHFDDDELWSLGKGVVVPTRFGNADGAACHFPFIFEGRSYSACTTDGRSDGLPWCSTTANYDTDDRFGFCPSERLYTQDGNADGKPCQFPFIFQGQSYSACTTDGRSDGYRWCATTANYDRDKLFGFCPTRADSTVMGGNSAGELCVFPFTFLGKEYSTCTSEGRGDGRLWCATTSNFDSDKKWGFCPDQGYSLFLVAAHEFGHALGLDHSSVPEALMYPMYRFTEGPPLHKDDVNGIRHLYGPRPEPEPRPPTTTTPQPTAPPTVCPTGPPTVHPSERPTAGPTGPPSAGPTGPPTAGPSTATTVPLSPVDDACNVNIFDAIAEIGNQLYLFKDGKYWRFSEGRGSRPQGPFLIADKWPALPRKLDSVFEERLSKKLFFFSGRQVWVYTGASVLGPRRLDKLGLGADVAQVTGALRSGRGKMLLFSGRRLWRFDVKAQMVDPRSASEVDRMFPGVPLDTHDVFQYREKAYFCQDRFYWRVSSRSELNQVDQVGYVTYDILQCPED

SMILES | Inhibitory activity against MMP-9, potency relative to captopril [1] [fold] | Inhibition of MMP-9 [1] | Inhibition of MMP-1 [2] | Inhibitory activity against MMP-2, potency relative to captopril [3] [fold] | Inhibition of MMP-2 [3]
O=C1CCC(Cc2ccc(O)c(O)c2)O1 (stereo not shown) [M1, δ-(3,4-dihydroxy-phenyl)-γ-valerolactone] | 100 | strong inhibitory activity; also recorded: more potent than the parent molecules | strong inhibitory activity; also recorded: more potent than the parent molecules | 100 | strong inhibitory activity; also recorded: more potent than the parent molecules
COc1cc(CC2CCC(=O)O2)ccc1O (stereo not shown) [M2, δ-(3-methoxy-4-hydroxyphenyl)-γ-valerolactone] | 100 | strong inhibitory activity; also recorded: more potent than the parent molecules | strong inhibitory activity; also recorded: more potent than the parent molecules | 100 | strong inhibitory activity; also recorded: more potent than the parent molecules
